Results on one compound are retold here after article PMC10865806, “Structural insights into the molecular mechanism of high-level ceftazidime–avibactam resistance conferred by CMY-185” (mBio, 2024).

A value given as a limit tells only on which side of the number the result lay.

The term Km denotes the substrate concentration at which the rate is half of its maximum.

Experiment [1] has as its target T1, CMY-2 (Klebsiella pneumoniae, UniProt Q48434).
T1 construct: all CMY-2 variant genes encoding the mature enzyme without a signal peptide were cloned into the protein expression plasmid vector pET-30b; made in house; host or cells: E. coli BL21 (DE3), pET-30b
As to the kind of experiment: Competitive inhibition of cephalothin hydrolysis and avibactam inhibition kinetics. The experiment is classed as biochemical, Escherichia coli. The source says:
(§1) We tested the enzymes, CMY-2, two single mutants V211S (CMY-42) and N346Y, three double mutants A114E_N346Y, Q120K_N346Y, and V211S_N346Y, and the quadruplet mutant CMY-185 to elucidate the impact on the kinetic properties resulting from the four amino acid substitutions present in CMY-185 compared with CMY-2 ([8]). The steady-state kinetic parameters kcat and Km (or Ki app) for nitrocefin, cephalothin, ceftazidime, and cefiderocol and the inhibition parameters Ki app, k2/K, k−2, and koff for avibactam are summarized in Table 1. During the hydrolysis of nitrocefin, we observed the reduction of the initial velocity at concentrations above 50 µM particularly for the CMY-2 variants harboring the N346Y substitution. As this could have represented substrate inhibition, we then determined the kinetics parameters for nitrocefin using the Haldane equation ([16]). […] In addition, during the hydrolysis of cefiderocol by CMY-185, the initial velocities at a concentration range of 3.7–59.4 µM were similar.
(§2) The steady-state kinetics were carried out on a UV-Visible spectrometer (UV-1280, Shimadzu, Japan) in PBS pH 7.2 at 25°C with a constant amount of enzyme and varying concentrations of the substrates. We tested nitrocefin, cephalothin, ceftazidime, and cefiderocol as the substrates and avibactam as the inhibitor. The steady-state kinetics parameters Km and kcat were determined with the Michaelis-Menten equation. For poorly hydrolyzed substrates, the Km value was assumed to be the competitive inhibition constant (Ki app) value according to previous studies ([17], [19]). Inhibition parameter values of Ki app, k2/K, k−2, and koff for avibactam were determined using a method as described previously ([33]). Cephalothin was used as the reporter substrate for competitive inhibition experiments, and its concentration was fixed at 100 µM. The enzyme concentration was 1–10 nM. Inverse steady-state initial velocities were plotted against the concentration of the competitive inhibitor agents, such as ceftazidime, cefiderocol, and avibactam. The data were analyzed by linear regression analysis of the Dixon plot, and Ki app (observed) was determined by dividing the y-intercept value by the slope of the line. It was then corrected to account for the affinity of cephalothin for each enzyme using the Equation (1):
(§3) (1) Ki app=Ki app (observed)/{1+[S]/Km (cephalothin)}
(§4) where [S] represents the concentration of the reporter substrate cephalothin, and Km (cephalothin) is the Km value of cephalothin for each enzyme.
(§5) The koff value was determined using a jump dilution assay. The enzyme and avibactam were mixed and preincubated at 25°C for 5 min. The concentration of avibactam depended on the enzyme and concentrations 10-fold higher from each Ki app (observed) value were adopted, which were determined based on the corrected competitive inhibition constants Ki app. Preincubated enzyme-avibactam mixture was then diluted 2,000-fold in the 100 µM cephalothin solution, and the hydrolysis of cephalothin was measured. Three independent measurements were performed for each enzyme and substrate or inhibitor combination. Curve fittings using linear or non-linear regression were performed with R 4.1.3 (R Core Team, 2022).

The target in experiment [2] is T2, CMY-2 variant A114E_N346Y (Klebsiella pneumoniae, UniProt Q48434, A134E/N366Y).
T2 construct: all CMY-2 variant genes encoding the mature enzyme without a signal peptide were cloned into the protein expression plasmid vector pET-30b; made in house; host or cells: E. coli BL21 (DE3), pET-30b
The description is as above. In kind it is biochemical, Escherichia coli. The conditions noted are these: reporter substrate cephalothin 100 µM, Dixon plot, read-out: Ki app.
Text: as §1, §2, §3, §4, §5

The target of experiment [3] is T3, CMY-2 variant N346Y (Klebsiella pneumoniae, UniProt Q48434, N366Y).
T3 construct: all CMY-2 variant genes encoding the mature enzyme without a signal peptide were cloned into the protein expression plasmid vector pET-30b; made in house; host or cells: E. coli BL21 (DE3), pET-30b
The description is as above. The experiment is classed as biochemical, Escherichia coli. The conditions noted are these: N346Y; reporter substrate cephalothin 100 µM, Dixon plot; read-out: Ki app.
Text: as §1, §2, §3, §4, §5

Experiment [4] concerns the target T4, CMY-185 (Klebsiella pneumoniae, UniProt Q48434, A134E/N366Y/Q140K/V231S).
T4 construct: all CMY-2 variant genes encoding the mature enzyme without a signal peptide were cloned into the protein expression plasmid vector pET-30b; made in house; host or cells: E. coli BL21 (DE3), pET-30b
The description is as above. In kind it is biochemical, Escherichia coli. The conditions noted are these: CMY-185; reporter substrate cephalothin 100 µM, Dixon plot; read-out: Ki app.
Text: as §1, §2, §3, §4, §5

Experiment [5] concerns the target T5, CMY-2 variant Q120K_N346Y (Klebsiella pneumoniae, UniProt Q48434, N366Y/Q140K).
T5 construct: all CMY-2 variant genes encoding the mature enzyme without a signal peptide were cloned into the protein expression plasmid vector pET-30b; made in house; host or cells: E. coli BL21 (DE3), pET-30b
Described as above. In kind it is biochemical, Escherichia coli. The conditions noted are these: Q120K_N346Y; reporter substrate cephalothin 100 µM, Dixon plot; read-out: Ki app.
Text: as §1, §2, §3, §4, §5

Experiment [6] deals with other β-lactamases. More on the design: method as in PMID 30188999, PMID 27736756. Particulars: cited from earlier work.

For the compound `CC(C)(O/N=C(\C(=O)N[C@@H]1C(=O)N2C(C(=O)[O-])=C(C[N+]3(CCNC(=O)c4ccc(O)c(O)c4Cl)CCCC3)CS[C@H]12)c1csc(N)n1)C(=O)O` [Cefiderocol, cefiderocol], the “fold higher Ki app” value in experiment [1] (cefiderocol compared with ceftazidime) was found to be 10 fold. In addition, the Ki was found to be 8000 ± 1300 nM in experiment [1] (reporter substrate cephalothin 100 µM, Dixon plot, read-out: Ki app); 400 nM in experiment [2]; 700 nM in experiment [3]; 200 nM in experiment [4]; 400 nM in experiment [5]. In addition, the Km in experiment [6] was > 190 µM.
